In one data set the target is T1, PKN (Rattus norvegicus, UniProt Q63433).
T1 construct: The purified PKN (1 ng) from rat testis cytosol; from tissue; host or cells: rat testis (cytosol / soluble fraction)
Description: Inhibition of protein kinase activity of PKN with synthetic peptides (δPKC peptide substrate). Particulars: δPKC peptide at Km concentration (10 μM). The class given is biochemical. As to the method:
Kinase assay was carried out by the following method. The purified PKN (1 ng) from rat testis cytosol (Kitagawa, M. et al., Biochem. J. 310, 657-664. (1995)) was incubated for 5 min at 30° C. in a reaction mixture (final volume 25 μl) containing 50 mM Tris/HCl (pH 7.5), 8 mM Mgcl2, 20 μM ATP, 18.5 kBq of [γ-^32p] ATP, 40 μM arachidonic acid, phosphate acceptors and inhibitors as indicated in each experiment. Reactions were started by the addition of the enzyme source and terminated by spotting them onto Whatman P81 papers immersed in 75 mM phosphate. Incorporation of ^32P into phosphate acceptors was assessed by liquid scintillation counting. The protein kinase assay was carried out in the same manner as in Example 13, except that PKN was measured by using 6PKC peptide as a substrate and PKN (39-53) peptide (FIG. 22; black circle) or PKN (54-73) (FIG. 22: white circle) as an inhibitor. The concentration of δPKC peptide was Km concentration (10 μM). The protein kinase reaction was carried out in the presence of PKN (39-53) peptide or PKN (54-73) peptide with various concentrations.

Data set [1] deals with T2, catalytic subunit of bovine heart PKA (Bos taurus, UniProt P00517).
T2 construct: The catalytic subunit of bovine heart PKA used in the experiment was purified; from tissue; host or cells: bovine heart
Description: Protein kinase assay with PKA (Kemptide substrate), specificity of inhibitor peptide. Type of data set: biochemical. Particulars: Kemptide at Km concentration (16 μM), no arachidonic acid; read-out: IC50 against PKA. As to the method:
In order to judge the specificity of the activity of the inhibitor peptide, a protein kinase assay was carried out using PKA as an enzyme specimen. The catalytic subunit of bovine heart PKA used in the experiment was purified according to a method described in Bechtel, P. J. et al., J. Biol. Chem. 252, 2691-2697 (1977). The protein kinase activity of PKA was measured by using Kemptide (Kemp, B. E. et al., J. Biol. Chem. 252, 4888-4894 (1977) as a substrate under the same conditions as those used in Example 13, except that arachidonic acid was not used. The concentration of Kemptide was the Km concentration (16 μM), and measurement was made using PKN (39-53) peptide as an inhibitor (FIG. 22; white square). The kinase activity was determined in the same manner as in Example 13.

In the next data set the target is T3, purified PKN (Rattus norvegicus, UniProt Q63433).
T3 construct: The purified PKN (1 ng) from rat testis cytosol; from tissue; host or cells: rat testis (cytosol / soluble fraction)
Description: Kinetic assays of PKN inhibition by PKN (39-53) peptide. Type of data set: biochemical. The method, then:
In order to confirm the function of PKN (39-53) as a pseudosubstrate for PKN, kinetic assays were performed with purified PKN, a fixed ATP concentration of 100 μM, and various concentrations of δPKC peptide (10-80 μM). The protein kinase reaction of PKN was performed in the same manner as in Examples 13 and 14. The results, performed in the presence of 40-80 μM PKN (39-53) peptide, are shown in double-reciprocal plots (FIG. 23 (A)). The inhibition was competitive-noncompetitive and gave a linear secondary plot of Km/Vmax (a concentration required to give a half-maximal velocity/maximal velocity) versus inhibitor peptide concentrations (FIG. 23 (B)).

Data set [2] deals with T4, PKN purified from rat testis (Rattus norvegicus, UniProt Q63433).
T4 construct: The purified PKN (1 ng) from rat testis cytosol; from tissue; host or cells: rat testis (cytosol / soluble fraction)
Description: Phosphorylation of α-actinin and actin-cytoskeletal proteins by PKN. Type of data set: biochemical. The following applies: presence of 40 μM arachidonic acid. As to the method: α-Actinin used in the experiment was purified from bovine aorta by the method of Feramisco et al. (Feramisco, J. R. & Burridge, K. J. Biol. Chem, 255, 1194-1199 (1980)). The phosphorylation by PKN was carried out at 30° C. in an assay mixture containing 20 mM Tris/HCl at pH 7.5, 4 mM MgCl2, 100 μM ATP, 185 kBq of [γ-^32p] ATP, substrates for phosphorylation (phosphate acceptors), 20 ng/ml of purified PKN from rat testis (Abe, M., et al., J. Biochem. Tokyo 107, 507-509 (1990)) in the presence or absence of 40 μM arachidonic acid as indicated in each experiment. Partial purified protein was boiled for 3 min to destroy endogenous kinase activity before use as the substrate for phosphorylation. After incubation for 5 min, the reaction was terminated by the addition of an equal volume of Laemmli's sample buffer (Laemmli, U. K. Nature […], 680-685 (1970)), and separated on SDS-PAGE. The gels were dried under vacuum and the phosphorylation was visualized and quantitated by an imaging analyzer (FUJI BAS1000). When the δPKC peptide (Mukai, H., et al. Biochem, Biophys. Res. Commun. 204, 348-356 (1994)) was used as the substrate for phosphorylation, reactions were terminated by spotting a mixture onto a Whatman P81 paper and submerging it in 75 mM phosphate, and followed by three times of 10 min washes. Incorporation of ^32p into the peptide was assessed by scintillation counting. […]

The target in data set [3] is T5, purified PKN from rat testis (Rattus norvegicus, UniProt Q63433).
T5 construct: The purified PKN (1 ng) from rat testis cytosol; from tissue; host or cells: rat testis (cytosol / soluble fraction)
Description: Phosphorylation of native NF by PKN. The following applies: 40 μM arachidonic acid. The class given is biochemical. The method, then: Native NFs were prepared from bovine spinal cords according to a method described in Hisanaga, S. & Hirokawa, N., J. Mol. Biol. 202, 297-305 (1988). Kinase assay was carried out according to the following method.
Soluble cytosolic extract of spinal cord or purified NF proteins were boiled for 5 min to destroy endogenous protein kinase activity prior to their use as phosphate acceptors. The phosphorylation of NF preparations was carried out at 30° C. in an assay mixture containing 20 mM Tris/HCl at pH 7.5, 8 mM MgCl2, 100 μM ATP, 185 kBq of [γ-^32P]ATP, each subunit of NF, 20 ng/ml of purified PKN from rat testis, and with/without 40 μM arachidonic acid as indicated in each experiment. Reactions were terminated after various times by the addition of an equal volume of Laemli's sample buffer, and separation was performed on 7% SDS-PAGE. The gels were dried under vacuum and exposure to BAS1000 bio-imaging analyzer. Dephosphorylation of NF proteins was conducted with calf intestine alkaline phosphatase according to a method described in Carden, M. J. et al., J. Biol. Chem. 260, 9805-9817 (1985) and terminated after boiling for 5 min.

For another data set, the system named is Rat-1 cells. Description: Subcellular distribution of PKN after sodium arsenite (immunofluorescence). Type of data set: cell-based. The following applies: 50 μM, 37° C. for 2 hr. The method, then:
(§1) Cells grown on coverslips were washed twice with phosphate-buffered saline (PBS), fixed for 1 hr at 4° C. in 4% paraformaldehyde, rinsed with PBS, and then blocked for 1 hr in PBS-T (PBS containing 0.05% Triton X-100) containing 5% normal goat serum. After washing with PBS, cells were incubated overnight at 4° C. with each antiserum which has been diluted with PBS to an antiserum concentration of about 10 μg/ml. Coverslips were then rinsed with PBS-T, and incubated with fluorescein isothiocyanate isomer I (FITC)-conjugated goat anti-rabbit IgG (Medical and biological laboratories, Co. Ltd.) for 60 min. Coverslips were rinsed with PBS-T followed by PBS, mounted with glycerol containing 0.1% 1, 4-diazabicyclo (2, 2, 2) octane (DABCO), and viewed on a Zeiss laser scanning microscope.
An experiment was made in order to examine whether the subcellular distribution of PKN is influenced also by chemical shock. It is known that toxic compounds and toxic heavy metals also induce heat shock proteins and the stress responses in experimental systems (Maytin, E. V. & Young, D. A., J. Biol. Chem. 258, 12718-12722 (1983)). It is also known that cellular response similar to the stress induced by the heat shock is created also by treatment with sodium arsenite (Welch, W. J. & Suhan, J. P., J. Cell Biol. 103, 2035-2052 (1986)). […]

A further data set deals with PKN autophosphorylation. Description: Kinase activity (autophosphorylation) of immunoprecipitated PKN-PK^−. The class given is biochemical, human. Particulars: immunoprecipitate from PK^−/neo#5 cells. The method, then:
To examine whether PKN-PK^− has kinase activity, the kinase activity of PKN-PK^−, which has been immunoprecipitated by cells, was assayed. Specifically, the assay was carried out according to the following procedure.
The experiment on immunoprecipitation was carried out at 0 to 4° C. The wild type NIH 3T3 cells and PK^−/neo#5 cells were lysed in 0.5 ml of buffer B (20 mM Tris/HCl at pH 7.5, 1% Nonidet P-40, 137 mM NaCl, 10% glycerol, 1 mM PMSF, 20 μg/ml aprotinin, 10 μg/ml leupeptin, 2.5 mM sodium fluoride, 0.25 mM sodium vanadate) for 1 hr. Insoluble materials were removed by centrifugation at 15,000×g for 10 min, and the supernatants were incubated with 1 μl of 10-fold diluted antiserum αN2 (Example 19) for 2 hr. After addition of 40 μl of 50% protein A Sepharose, the mixtures were further incubated for 1 hr. […] Each immunoprecipitate was incubated for 5 min at 30° C. with a 25-μl mixture (20 mM Tris/HCl at pH 7.5, 4 mM MgCl2, 40 μM ATP, 185 kBq of [γ-^32P] ATP without exogenous substrate. After addition of 5 μl of 6×Laemmli sample buffer (Laemmli, U. K. Nature 227, 680-685 (1970)) and boiling, a 20-μl aliquot of the mixture was subjected to 7% SDS-PAGE. The phosphorylation was visualized and quantitated by an imaging analyzer (Fuji BAS1000).

Data set [4] relates to PK^−/neo#5 cells (NIH 3T3). Description: Heat shock induced nuclear translocation of PKN in PK^−/neo#5 cells. Type of data set: cell-based. The method, then:
as §1
At the outset, NIH 3T3 cells which stably overexpresses PKN-PK^− were constructed by the following procedure. A vector phPKNH4-PK^− was constructed by conversion of the lysine at the potential ATP-binding site to an arginine by in vitro site-directed mutagenesis (Mukai, H. & Ono, Y., Biochem. Biophys. Res. Commun. 199, 897-904 (1994)). […]

Data set [5] has as its target T6, GST-RhoGAP-stimulated GTPase activity of GST-RhoA (Homo sapiens, UniProt P61586).
T6 construct: made in house
Description: GAP-stimulated GTPase activity of RhoA. The class given is biochemical. Particulars: 50 nM GST-RhoGAP, 2 min 25° C., concentration-dependent. As to the method: The GAP-stimulated GTPase activity of RhoA was assayed by measuring the decreased radioactivity of [γ-^32p] GTP.GST-RhoA for 2 min at 25° C. in the presence of 50 nM of p122 Rho GAP fused to GST (GST-RhoGAP) and MBP-PKN with various concentrations in 100 μl of reaction mixture (20 mM Tris/HCl at pH 7.5, 10 mM EDTA, 1 mM DTT, 10 mM MgCl2, 1 mM GTP, 0.075% CHAPS, 0.25 mM L-α-dimyristoylphosphatidylcholine, 100 nM [γ-^32p] GTP bound form of GST-RhoA) (Homma, Y. & Emori, Y., EMBO J. 14, 286-291 (1995).

Ends that are not written are not given here. A value given as a limit tells only on which side of the number the result lay.

T3 sequence (Q63433 whole entry): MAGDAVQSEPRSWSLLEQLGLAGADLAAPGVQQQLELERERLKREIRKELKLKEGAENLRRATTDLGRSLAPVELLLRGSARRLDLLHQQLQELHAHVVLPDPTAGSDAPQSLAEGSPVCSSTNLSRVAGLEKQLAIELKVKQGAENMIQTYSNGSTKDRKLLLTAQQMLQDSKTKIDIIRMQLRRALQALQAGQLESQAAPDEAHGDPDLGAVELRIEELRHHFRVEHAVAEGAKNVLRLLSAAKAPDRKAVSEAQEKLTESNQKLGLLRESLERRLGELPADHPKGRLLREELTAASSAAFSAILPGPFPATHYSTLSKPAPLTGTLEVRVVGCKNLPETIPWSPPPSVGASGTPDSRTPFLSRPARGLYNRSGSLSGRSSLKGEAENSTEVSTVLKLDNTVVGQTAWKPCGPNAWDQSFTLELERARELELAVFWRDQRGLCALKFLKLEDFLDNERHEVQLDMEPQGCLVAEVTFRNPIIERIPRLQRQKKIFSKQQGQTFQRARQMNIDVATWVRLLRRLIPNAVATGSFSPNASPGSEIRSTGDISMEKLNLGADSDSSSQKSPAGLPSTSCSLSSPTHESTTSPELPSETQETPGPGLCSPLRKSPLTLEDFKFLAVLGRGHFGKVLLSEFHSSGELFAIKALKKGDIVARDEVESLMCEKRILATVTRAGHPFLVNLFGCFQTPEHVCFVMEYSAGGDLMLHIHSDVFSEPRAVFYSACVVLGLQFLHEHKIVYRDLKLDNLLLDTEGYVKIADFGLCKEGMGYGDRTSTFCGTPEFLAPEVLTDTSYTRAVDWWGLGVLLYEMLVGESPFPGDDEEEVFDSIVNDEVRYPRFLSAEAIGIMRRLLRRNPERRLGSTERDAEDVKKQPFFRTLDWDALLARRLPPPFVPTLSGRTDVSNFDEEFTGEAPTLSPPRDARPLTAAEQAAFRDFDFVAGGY
T4 sequence (Q63433 whole entry): as above
T1 sequence (Q63433 whole entry): as above
T5 sequence (Q63433 whole entry): as above
T6 sequence (P61586 whole entry): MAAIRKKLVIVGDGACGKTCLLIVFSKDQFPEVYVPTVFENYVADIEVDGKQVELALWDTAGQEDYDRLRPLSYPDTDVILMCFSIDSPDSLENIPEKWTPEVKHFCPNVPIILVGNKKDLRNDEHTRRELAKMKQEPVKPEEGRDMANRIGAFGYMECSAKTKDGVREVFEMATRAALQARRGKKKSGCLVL

For “EGAENLRRATTDLGRSLGPV [PKN (54-73) peptide]”, in the data set with PKN, the “inhibitory activity against PKN” value is “little or no inhibitory activity”.
As to RERLRREIRKELKLK [PKN (39-53) peptide], in data set [1], the IC50 was ≥ 1000 µM. Also, the “type of inhibition versus δPKC peptide substrate” value on purified PKN (100 μM ATP) is listed as “competitive-noncompetitive”. For the same molecule, the “type of inhibition with varying ATP concentration” value on purified PKN (data not shown) was “uncompetitive”.
With `CCCCC/C=C\C/C=C\C/C=C\C/C=C\CCCC(=O)O` [arachidonic acid], in data set [2], the “stimulation of phosphorylation of G-actin by PKN” value was “up to 2 fold” and the “stimulation of phosphorylation of caldesmon by PKN” value is “at least 6 fold”. Further, the “initial velocity of phosphorylation of each NF subunit by PKN, presence versus absence” value in data set [3] was 5-10 times.
Consider `O=[As]O` [sodium arsenite], for which, in the data set on Rat-1 cells, the “effect on subcellular distribution of PKN” value is “translocation of PKN to the nucleus”.
“PKN-PK^−: single point mutation of human PKN in the kinase domain (K644R), protein kinase-negative mutant”: the “enzyme (kinase) activity of the mutant” value in the data set with PKN autophosphorylation was “inactivated”. Moreover, the “nuclear translocation of the mutant protein on heat shock” value in data set [4] (42° C. or 44° C. for 90 min) is recorded as “does not translocate to the nucleus”. Also, the “effect of overexpression on translocation of endogenous PKN from cytoplasm to nucleus” value in data set [4] (heat shock) is on record as “inhibits the translocation”.
With “MBP-PKN: N-terminal region of PKN (amino acid sequence 7-155 in SEQ ID NO: 1) expressed as MBP fusion protein”, in [5], the “effect on GST-RhoGAP-stimulated GTPase activity of GST-RhoA” value is recorded as “inhibited”.

Values taken from patent US6660837B1, “Modified protein derived from protein kinase N” (Kirin Beer Kabushiki Kaisha, priority 1995, dated 2003).
